Test system: stably-integrated TK strains
Assay: FUdR counterselection of TK versus tk cells on SC media
Format: cell-based, Saccharomyces
Details: 50 μg/mL FUdR in synthetic complete (SC) media
Description: With a stably integrated copy of HSV-TK in each of several genomes, we were able to evaluate counterselection media conditions. […] As an initial test of our ability to recover newly generated tk wild-type cells, we transformed a strain of S. kudriavzevii that had regions of identical sequence on either side of its hoΔ::NatMX locus with TkMX PCR product and selected for cells resistant to the antifolate drugs (FIG. 4A). When counterselection with SC+FUdR media was conducted, only cells that had deleted the TkMX marker by homologous recombination survived and yielded colonies resistant to FUdR (FIG. 4B).

O=c1[nH]c(=O)n([C@H]2C[C@H](O)[C@@H](CO)O2)cc1F [FUdR, 5-fluorodeoxyuridine]
growth of stably-integrated TK strains: sufficient to inhibit growth | growth of tk wild-type cells: allow growth

Reference: patent publication US10870858B2 (priority 2014, dated 2020)
